According to ChEMBL document CHEMBL1137232 (J Med Chem, 2004):

Assays:
[1] = target: Sodium-dependent serotonin transporter (Rattus norvegicus, UniProt P31652); assay: Inhibition of high affinity uptake by the serotonin transporter (5-HT) from rat synaptosomal nerve endings by using [3H]5-HT as radioligand
[2] = target: Norepinephrine transporter (Rattus norvegicus, UniProt Q9WTR4); assay: Inhibition of high affinity uptake by the norepinephrine transporter from rat synaptosomal nerve endings by using [3H]NE as radioligand
Chain of Norepinephrine transporter (Q9WTR4 whole entry): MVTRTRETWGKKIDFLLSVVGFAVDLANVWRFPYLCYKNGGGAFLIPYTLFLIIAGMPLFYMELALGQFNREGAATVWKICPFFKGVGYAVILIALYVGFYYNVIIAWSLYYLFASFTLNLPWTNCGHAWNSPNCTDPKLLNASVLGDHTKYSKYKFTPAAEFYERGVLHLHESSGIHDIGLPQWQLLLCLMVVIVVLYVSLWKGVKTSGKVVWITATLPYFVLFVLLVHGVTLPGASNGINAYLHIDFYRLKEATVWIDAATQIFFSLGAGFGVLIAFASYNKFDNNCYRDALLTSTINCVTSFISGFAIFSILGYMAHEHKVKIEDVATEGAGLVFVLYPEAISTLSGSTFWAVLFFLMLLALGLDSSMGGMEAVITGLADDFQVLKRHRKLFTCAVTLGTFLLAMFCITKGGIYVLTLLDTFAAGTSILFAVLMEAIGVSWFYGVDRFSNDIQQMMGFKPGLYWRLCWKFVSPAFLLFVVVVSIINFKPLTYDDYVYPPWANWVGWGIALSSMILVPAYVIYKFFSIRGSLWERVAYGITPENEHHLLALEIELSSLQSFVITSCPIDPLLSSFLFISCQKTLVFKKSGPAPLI

[3] = target: Sodium-dependent dopamine transporter (Rattus norvegicus, UniProt P23977); assay: Inhibition of high affinity uptake by the dopamine transporter from rat synaptosomal nerve endings by using [3H]DA as radioligand
Chain of Sodium-dependent dopamine transporter (P23977 whole entry): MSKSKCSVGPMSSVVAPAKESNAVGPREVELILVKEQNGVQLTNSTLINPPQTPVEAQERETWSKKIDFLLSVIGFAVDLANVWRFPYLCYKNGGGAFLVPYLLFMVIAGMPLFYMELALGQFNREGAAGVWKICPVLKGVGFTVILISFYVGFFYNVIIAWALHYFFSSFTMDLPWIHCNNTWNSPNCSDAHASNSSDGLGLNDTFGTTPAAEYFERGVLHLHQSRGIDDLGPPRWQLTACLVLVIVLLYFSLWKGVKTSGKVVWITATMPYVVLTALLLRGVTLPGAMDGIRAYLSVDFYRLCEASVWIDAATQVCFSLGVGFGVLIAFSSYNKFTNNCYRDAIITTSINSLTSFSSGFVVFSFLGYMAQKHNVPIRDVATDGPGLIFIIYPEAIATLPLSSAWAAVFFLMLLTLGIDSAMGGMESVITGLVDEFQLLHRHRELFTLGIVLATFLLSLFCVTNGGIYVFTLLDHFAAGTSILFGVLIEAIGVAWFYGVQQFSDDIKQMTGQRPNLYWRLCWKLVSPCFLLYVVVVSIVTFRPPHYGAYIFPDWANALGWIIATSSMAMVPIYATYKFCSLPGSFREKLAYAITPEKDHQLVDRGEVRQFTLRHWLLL

Chain of Sodium-dependent serotonin transporter (P31652 whole entry): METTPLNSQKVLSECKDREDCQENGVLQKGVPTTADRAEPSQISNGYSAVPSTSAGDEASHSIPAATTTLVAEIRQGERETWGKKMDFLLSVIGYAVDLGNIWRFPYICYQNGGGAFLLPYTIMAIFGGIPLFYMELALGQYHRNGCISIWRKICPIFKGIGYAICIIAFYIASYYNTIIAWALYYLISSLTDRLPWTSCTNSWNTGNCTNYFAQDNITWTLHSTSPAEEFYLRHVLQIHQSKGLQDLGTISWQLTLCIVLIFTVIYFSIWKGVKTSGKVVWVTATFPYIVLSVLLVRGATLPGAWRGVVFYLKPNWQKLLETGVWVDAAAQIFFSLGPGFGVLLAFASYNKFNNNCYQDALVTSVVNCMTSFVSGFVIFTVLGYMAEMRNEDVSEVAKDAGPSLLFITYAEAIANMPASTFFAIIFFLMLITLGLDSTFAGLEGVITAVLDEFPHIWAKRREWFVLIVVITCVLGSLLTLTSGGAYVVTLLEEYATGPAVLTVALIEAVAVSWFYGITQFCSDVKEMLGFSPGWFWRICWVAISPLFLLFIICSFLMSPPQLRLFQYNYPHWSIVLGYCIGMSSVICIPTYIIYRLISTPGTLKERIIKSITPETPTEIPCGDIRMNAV

Row | Structure (SMILES) | Ki [1] [nM] | Ki [2] [nM] | Ki [3] [nM]
1 | COC(=O)CSCC1CNCCC1c1ccc(Cl)cc1 (stereo not given) | 13 | 0.56 | 51
2 | CN1CCC(c2ccc(Cl)cc2)C(C[S+]([O-])CC(=O)N(C)C)C1 (stereo not given) | 924 | 1250 | 2880
3 | COC(=O)C[S+]([O-])CC1CN(C)CCC1c1ccc(Cl)cc1 (stereo not given) | 809 | 53 | 231
4 | COCC[S+]([O-])CC1CN(C)CCC1c1ccc(Cl)cc1 (stereo not given) | 469 | 25 | 15
5 | CC(C)NC(=O)CSCC1CN(C)CCC1c1ccc(Cl)cc1 (stereo not given) | 1.1 | 0.8 | 1
6 | CN1CCC(c2ccc(Cl)cc2)C(C[S+]([O-])CCOC(=O)c2ccccc2)C1 (stereo not given) | 199 | 18 | 32
7 | CN1CCC(c2ccc(Cl)cc2)C(C[S+]([O-])CC(=O)N2CCCCC2)C1 (stereo not given) | 825 | 460 | 379
8 | CN1CCC(c2ccc(Cl)cc2)C(C[S+]([O-])CC(=O)NO)C1 (stereo not given) | 1800 | 12 | 55
9 | NC(=O)C[S+]([O-])CC1CNCCC1c1ccc(Cl)cc1 (stereo not given) | 775 | 31 | 108
10 | CN1CCC(c2ccc(Cl)cc2)C(CSCC(=O)N2CCCCC2)C1 (stereo not given) | 4.5 | 0.68 | 83
11 | CNC(=O)C[S+]([O-])CC1CN(C)CCC1c1ccc(Cl)cc1 (stereo not given) | 2030 | 86 | 164
12 | COCCSCC1CN(C)CCC1c1ccc(Cl)cc1 (stereo not given) | 191 | 6 | 50
13 | CC(C)NC(=O)C[S+]([O-])CC1CN(C)CCC1c1ccc(Cl)cc1 (stereo not given) | 473 | 20 | 248
14 | CNC(=O)CSCC1CN(C)CCC1c1ccc(Cl)cc1 (stereo not given) | 110 | 25 | 13
15 | CN1CCC(c2ccc(Cl)cc2)C(CSCC(=O)NO)C1 (stereo not given) | 227 | 15 | 85
16 | CC(=O)OCC[S+]([O-])CC1CN(C)CCC1c1ccc(Cl)cc1 (stereo not given) | 87 | 29 | 9
17 | CN1CCC(c2ccc(Cl)cc2)C(CSCC(=O)N(C)C)C1 (stereo not given) | 88 | 27 | 116
18 | CN1CCC(c2ccc(Cl)cc2)C(CSCC(N)=O)C1 (stereo not given) | 557 | 39 | 159
19 | NC(=O)CSCC1CNCCC1c1ccc(Cl)cc1 (stereo not given) | 170 | 10 | 114
20 | CN1CCC(c2ccc(Cl)cc2)C(CI)C1 (stereo not given) | 238 | 424 | 376
21 | CC(=O)OCCSCC1CN(C)CCC1c1ccc(Cl)cc1 (stereo not given) | 57 | 3.6 | 35
22 | CN1CCC(c2ccc(Cl)cc2)C(C[S+]([O-])CCO)C1 (stereo not given) | 2180 | 42 | 12
23 | CN1CCC(c2ccc(Cl)cc2)C(C[S+]([O-])CC(N)=O)C1 (stereo not given) | 5790 | – | 209
24 | Cc1noc(CSCC2CN(C)CCC2c2ccc(Cl)cc2)n1 (stereo not given) | 221 | 32 | 126
25 | Cc1noc(C[S+]([O-])CC2CN(C)CCC2c2ccc(Cl)cc2)n1 (stereo not given) | 1080 | 218 | 1650
26 | COC(=O)CSCC1CN(C)CCC1c1ccc(Cl)cc1 (stereo not given) | 208 | 25 | 80
27 | CN1CCC(c2ccc(Cl)cc2)C(CSCCO)C1 (stereo not given) | 158 | 0.94 | 16
28 | CN1CCC(c2ccc(Cl)cc2)C(CSCCOC(=O)c2ccccc2)C1 (stereo not given) | 6.7 | 4.5 | 68
29 | COC(=O)C1CN(C)CCC1c1ccc(Cl)cc1 (stereo not given) | 8490 | 252 | –
